# Assay results taken from ChEMBL document CHEMBL1145227, “5-Amidinobenzo[b]thiophenes as dual inhibitors of factors IXa and Xa” (Bioorg Med Chem Lett, 2005).
# Tests used:
# Coagulation factor X = Coagulation factor X (Homo sapiens, UniProt P00742); assay: Inhibitory constant against human purified Coagulation factor Xa (fXa)
# Coagulation factor IX = Coagulation factor IX (Homo sapiens, UniProt P00740); assay: Inhibitory constant against human purified Coagulation factor IXa (fIXa)
# Trypsin = Trypsin (Homo sapiens, UniProt P07477+P07478+P35030); assay: Inhibitory constant against human trypsin; assay type: protein assay
# Prothrombin = Prothrombin (Homo sapiens, UniProt P00734); assay: Inhibitory constant against human thrombin
# Sequence of Coagulation factor X (P00742 41-179 limits assumed): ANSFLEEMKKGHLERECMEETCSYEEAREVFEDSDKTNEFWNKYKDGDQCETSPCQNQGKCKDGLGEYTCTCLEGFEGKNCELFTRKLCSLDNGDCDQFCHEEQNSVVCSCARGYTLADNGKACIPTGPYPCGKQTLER
# Sequence of Coagulation factor X (P00742 235-488 limits assumed): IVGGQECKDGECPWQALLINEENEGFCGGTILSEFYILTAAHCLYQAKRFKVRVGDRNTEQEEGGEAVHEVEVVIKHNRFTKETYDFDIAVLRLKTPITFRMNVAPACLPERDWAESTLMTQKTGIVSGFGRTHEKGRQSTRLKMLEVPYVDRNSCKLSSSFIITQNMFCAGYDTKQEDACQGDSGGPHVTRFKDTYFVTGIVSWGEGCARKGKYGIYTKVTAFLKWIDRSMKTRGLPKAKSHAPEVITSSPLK
# Sequence of Coagulation factor IX (P00740 47-191 limits assumed): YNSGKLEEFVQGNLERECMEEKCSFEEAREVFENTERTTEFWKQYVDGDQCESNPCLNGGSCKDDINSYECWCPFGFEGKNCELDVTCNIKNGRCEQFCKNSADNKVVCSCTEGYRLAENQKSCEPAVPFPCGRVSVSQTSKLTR
# Sequence of Coagulation factor IX (P00740 227-461 limits assumed): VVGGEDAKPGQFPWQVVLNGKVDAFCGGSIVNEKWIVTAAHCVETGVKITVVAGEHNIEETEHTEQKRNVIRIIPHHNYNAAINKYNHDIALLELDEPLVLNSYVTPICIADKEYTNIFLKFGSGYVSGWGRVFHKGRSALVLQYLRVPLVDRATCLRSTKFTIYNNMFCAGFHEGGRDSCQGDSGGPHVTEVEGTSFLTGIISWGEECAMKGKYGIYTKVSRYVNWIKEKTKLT
Compound,Ki (Coagulation factor X) [nM],Ki (Coagulation factor IX) [nM],Ki (Trypsin) [nM],Ki (Prothrombin) [nM]
CCOC(=O)[C@@H]1CCCCC1NC(=O)C(Cc1ccccc1)c1coc2ccc(C(=N)N)cc12 (some centres undefined),270,1190,> 4200,–
N=C(N)c1ccc2scc([C@@H](Cc3ccccc3)C(=O)Nc3ccc4ncsc4c3)c2c1,2700,480,–,–
COC(=O)[C@H]1CCCCC1NNC(=O)C(Cc1ccccc1)c1csc2ccc(C(=N)N)cc12 (some centres undefined),300,310,–,–
N=C(N)c1ccc2scc([C@H](Cc3ccccc3)C(=O)NC3CCCC[C@H]3C(=O)NCc3ccccc3)c2c1 (some centres undefined),> 9000,> 32000,–,–
CC1CCC(NC(=O)C(Cc2ccccc2)c2csc3ccc(C(=N)N)cc23)CC1 (centres undefined),3240,580,–,–
N=C(N)c1ccc2scc([C@H](Cc3ccccc3)C(=O)NC3CCCC[C@H]3C(=O)O)c2c1 (some centres undefined),200,3500,–,–
COC(=O)[C@@H]1CCCCC1NC(=O)C(Cc1ccccc1)c1c[nH]c2ccc(C(=N)N)cc12 (some centres undefined),19,340,1500,–
COC(=O)[C@@H]1CCCCC1NNC(=O)C(Cc1ccccc1)c1csc2ccc(C(=N)N)cc12 (some centres undefined),90,500,–,–
CCOC(=O)[C@@H]1CCCCC1NC(=O)C(Cc1ccccc1)C1=CS(=O)(=O)c2ccc(C(=N)N)cc21 (some centres undefined),> 9000,8530,> 4200,–
CCNC(=O)[C@@H]1CCCCC1NC(=O)[C@@H](Cc1ccccc1)c1csc2ccc(C(=N)N)cc12 (some centres undefined),130,430,–,–
COC(=O)[C@H]1CCCCC1NNC(=O)[C@H](Cc1ccccc1)c1csc2ccc(C(=N)N)cc12 (some centres undefined),270,280,–,–
N=C(N)c1ccc2[nH]cc(C(Cc3ccccc3)C(=O)Nc3ccc(-c4ccccc4S(N)(=O)=O)cc3)c2c1 (centres undefined),–,–,150,600
CCOC(=O)[C@@H]1CCCCC1NC(=O)[C@@H](Cc1ccccc1)c1cccc2ccc(C(=N)N)cc12 (some centres undefined),530,240,> 4200,–
COC(=O)[C@@H]1CCCCC1NC(=O)[C@@H](Cc1ccccc1)c1csc2ccc(C(=N)N)cc12 (some centres undefined),120,140,–,–
Cc1ccc(F)cc1NC(=O)C(Cc1ccccc1)c1csc2ccc(C(=N)N)cc12 (centres undefined),> 8000,960,–,–
CCOC(=O)[C@@H]1CCCCC1NC(=O)[C@@H](Cc1ccccc1)c1csc2ccc(C(=N)N)cc12 (some centres undefined),180,120,–,–
N=C(N)c1ccc2scc([C@H](Cc3ccccc3)C(=O)NC3CCCC[C@H]3C(=O)NCC(N)=O)c2c1 (some centres undefined),65,280,–,–
COC(=O)[C@H]1CCCCC1NNC(=O)[C@@H](Cc1ccccc1)c1csc2ccc(C(=N)N)cc12 (some centres undefined),> 9000,41300,–,–

# Now from value to compound:
Ki (Coagulation factor X) [nM],Ki (Coagulation factor IX) [nM],Ki (Trypsin) [nM],Ki (Prothrombin) [nM],Compound
> 8000,1730,–,–,N#Cc1ccc(NC(=O)C(Cc2ccccc2)c2csc3ccc(C(=N)N)cc23)cc1 (centres undefined)
> 8000,780,–,–,N=C(N)c1ccc2scc(C(Cc3ccccc3)C(=O)Nc3ccc4ncsc4c3)c2c1 (centres undefined)
740,230,3900,> 6300,N=C(N)c1ccc2scc(C(Cc3cccc4ccccc34)C(=O)Nc3ccc(-n4cnc5ccccc54)cc3)c2c1.O=C(O)C(F)(F)F (centres undefined)
120,98,1020,> 6300,N=C(N)c1ccc2scc(C(Cc3ccccc3)C(=O)Nc3ccc(-n4cnc5ccccc54)cc3)c2c1.O=C(O)C(F)(F)F (centres undefined)
280,1250,> 4200,4200,N=C(N)c1ccc2scc(C(CC(=O)Nc3ccc(-n4cnc5ccccc54)cc3)Cc3ccccc3)c2c1.O=C(O)C(F)(F)F (centres undefined)
22,4900,60,390,N=C(N)c1ccc2scc(C3(C(=O)Nc4ccc(-n5cnc6ccccc65)cc4)CC3)c2c1.O=C(O)C(F)(F)F
47,74,> 4200,4200,N=C(N)c1ccc2scc(C(Cc3ccc(N)cc3)C(=O)Nc3ccc(-n4cnc5ccccc54)cc3)c2c1.O=C(O)C(F)(F)F (centres undefined)
–,–,340,13000,N=C(N)c1ccc2[nH]cc(C(Cc3ccccc3)C(=O)Nc3ccc(-n4cnc5ccccc54)cc3F)c2c1.O=C(O)C(F)(F)F (centres undefined)
410,130,–,–,N=C(N)c1ccc2scc(C(Cc3ccccc3)C(=O)Nc3ccc(-n4ccc(C(F)(F)F)n4)cc3)c2c1 (centres undefined)
71,220,270,> 270,CCC(C(=O)Nc1ccc(-n2cnc3ccccc32)cc1)c1csc2ccc(C(=N)N)cc12.O=C(O)C(F)(F)F (centres undefined)
–,–,> 4200,4200,N=C(N)c1ccc2[nH]cc(C(Cc3ccc(N)cc3)C(=O)Nc3ccc(-n4cnc5ccccc54)cc3)c2c1.O=C(O)C(F)(F)F (centres undefined)
5360,930,–,–,N=C(N)c1ccc2scc(C(Cc3ccccc3)C(=O)Nc3ccc(S(=O)(=O)Nc4ccc(Cl)nn4)cc3)c2c1 (centres undefined)
2020,390,> 4200,> 6300,N=C(N)c1ccc2scc(C(Cc3ccccc3)C(=O)Nc3ccc(-n4cnc(-c5ccccc5)c4)cc3)c2c1.O=C(O)C(F)(F)F (centres undefined)
450,250,–,–,N=C(N)c1ccc2scc(C(Cc3ccccc3)C(=O)Nc3ccc(Oc4ccccc4)cc3)c2c1 (centres undefined)
5700,14200,–,–,"N=C(N)c1ccc2scc(C(Cc3ccccc3)C(=O)Nc3ccc4ncsc4c3)c2c1 (single isomer, unassigned)"
